Measurements reported in article PMC6155576, “Anti-Neuroinflammatory ent-Kaurane Diterpenoids from Pteris multifida Roots” (Molecules : A Journal of Synthetic Chemistry and Natural …, 2016).

Assays:
PGE2 = PGE2 ELISA in LPS-activated BV-2 microglia; type: cell-based, mouse; conditions: pre-treatment, dose-dependent, result in words
Protocol: (§1) BV-2 microglial cells were cultured in 96-well plates, preincubated for 30 min. with different concentrations of compounds 1 and 7 and then stimulated for 24 h with LPS (Sigma-Aldrich Co.). Supernatant from the culture (100 μL) was collected to determine the concentration of PGE2, TNF-α, IL-1β, and IL-6, respectively, with ELISA kits (TNF-α, Abcam, Cambridge, MA, USA; PGE2, IL-1β, and IL-6, R&D Systems, Minneapolis, MN, USA).

BV-2 cells = assay: Cell viability by MTT assay; type: cell-based, mouse; conditions: BV-2 cells, result in words
Protocol: (§2) The BV-2 mouse microglial cells were generously provided by Dr. Sun Yeou Kim at Kyunghee University (Suwon, Korea). The cells were maintained in DMEM containing 10% FBS with 1% PS at 37 °C in a humidified atmosphere of 95% air and 5% CO2. All tested fractions and samples were dissolved in DMSO (final concentration in cultures ≤0.1%).
(§3) To evaluate NO production, we seeded BV-2 cells in 96-well plates (4 × 10^5 cells/mL) for 24 h and then treated them with various concentrations of the samples for 1 h before exposure to 100 ng/mL of LPS. After the 24 h incubation, the nitrite in the culture media was measured to assess NO production in the BV-2 cells with the Griess reagent (1% sulfanilamide and 0.1% naphtylethylenediamine dihydrochloride in 2% phosphoric acid). In 96-well plates, 100 μL of sample aliquots were mixed with 100 μL of Griess reagent and incubated at room temperature for 15 min. The absorbance at 550 nm was measured on a microplate reader. The concentration was determined with a nitrite standard curve. Cell viability was assessed by the MTT assay. After exposing the cells to 2 mg/mL MTT for 2 h, the absorbance was measured by an ELISA plate reader at 562 nm.

[1] = Cell viability by MTT assay; type: cell-based, mouse; conditions: mouse, BV-2 microglial cells; MTT assay after treatment with 100 μM of each compound for 24 h; mean ± SD
Protocol: as §2, §3

IL-1β = IL-1β ELISA in LPS-activated BV-2 microglia; type: cell-based, mouse; conditions: pre-treatment, dose-dependent, result in words
Protocol: as §1

TNF-α = TNF-α ELISA in LPS-activated BV-2 microglia; type: cell-based, mouse; conditions: pre-treatment, dose-dependent, result in words
Protocol: as §1

IL-6 = IL-6 ELISA in LPS-activated BV-2 microglia; type: cell-based, mouse; conditions: pre-treatment, dose-dependent, result in words
Protocol: as §1

[2] = system: cyclooxygenase-2 (COX-2) protein expression; assay: Western blot of COX-2 expression in LPS-activated BV-2 microglia; type: cell-based, mouse; conditions: result in words
Protocol: Cells were harvested and lysed with radioimmunoprecipitation (RIPA) buffer (Bio-Rad, Hercules, CA USA). Cell lysates were centrifuged, and the supernatant was collected. The protein concentration was determined by protein assay reagents (Bio-Rad). The proteins were separated onto 10% SDS-polyacrylamide gel and transferred to polyvinylidene fluoride (PVDF) membrane. The membranes were blocked with 5% non-fat dry milk in Tris-buffered saline with 0.1% Tween-20 (TBS-T) buffer for 1 h at room temperature and then incubated with primary antibodies in TBS-T buffer containing 1% non-fat dry milk overnight at 4 °C. The membranes were washed with TBS-T buffer and incubated with goat anti-rabbit or anti-mouse horseradish peroxidase-conjugated IgG secondary antibodies from Santa Cruz Biotechnology (Santa Cruz, CA, USA) for 2 h. The membranes were washed with TBS-T buffer, and the antigen-antibody complex was detected with an enhanced chemiluminescence detection system (GE Healthcare, Milwaukee, MI, USA).

[3] = system: NO production in LPS-activated BV-2 cells; assay: NO production assay (Griess reagent) in LPS-activated BV-2 cells; type: cell-based; conditions: Mus musculus; LPS-stimulated BV-2 cells; samples 1 h before 100 ng/mL LPS, 24 h incubation; read-out: IC50, concentration that caused 50% inhibition of NO production
Protocol: as §2, §3

Row | Structure (SMILES) | IC50 [3] | Level of PGE2 (PGE2) | Cytotoxicity (BV-2 cells) | viability at 24 h, 100 μM [1] | Level of IL-1β (IL-1β) | Level of TNF-α (TNF-α) | Level of IL-6 (IL-6) | Protein level of COX-2 increased by LPS treatment [2]
1 | C=C1[C@@H]2CC[C@H]3[C@]4(C)C[C@H](O)CC(C)(C)[C@H]4CC[C@]3(C2)[C@H]1O [Compound 1, 2β,15α-dihydroxy-ent-kaur-16-ene] | 13.9 µM | effectively decreased | without any cytotoxicity | 90.7 ± 7.3% | effectively decreased | effectively decreased | effectively decreased | down-regulated
2 | C=C1[C@@H]2CC[C@H]3[C@]4(C)C[C@H](O)C[C@](C)(CO)[C@H]4CC[C@]3(C2)[C@H]1O [Compound 3, pterokaurane M1] | 84 µM | – | – | 87.7 ± 2.9% | – | – | – | –
3 | C=C1[C@@H]2CC[C@H]3[C@]4(C)C[C@H](O)CC(C)(C)[C@H]4[C@H](O)C[C@]3(C2)[C@H]1O [Compound 6, 2β,6β,15α-trihydroxy-ent-kaur-16-ene] | 137 µM | – | – | 85.9 ± 0.1% | – | – | – | –
4 | C=C1[C@@H]2CC[C@H]3[C@]4(C)C[C@H](O)CC(C)(C)[C@H]4CC[C@]3([C@@H]2O)[C@H]1O [Compound 7, pterokaurane P1] | 10.8 µM | effectively decreased | without any cytotoxicity | 88.7 ± 2.4% | effectively decreased | effectively decreased | effectively decreased | down-regulated
5 | CC1(C)C[C@@H](O)C[C@]2(C)[C@@H]1CC[C@@]13C[C@@H](CC[C@H]12)[C@](C)(O)C3 [Compound 9, 2β,16α-dihydroxy-ent-kaurane] | 122 µM | – | – | 97.5 ± 1.3% | – | – | – | –
6 | C[C@]1(CO)C[C@@H](O)C[C@]2(C)[C@@H]1CC[C@@]13C[C@@H](CC[C@H]12)[C@](C)(O)C3 [Compound 11, pterokaurane R] | 171 µM | – | – | 83.2 ± 10.2% | – | – | – | –

Now from value to compound, other results behind:

Row | IC50 [3] | Structure (SMILES) | Level of PGE2 (PGE2) | Cytotoxicity (BV-2 cells) | viability at 24 h, 100 μM [1] | Level of IL-1β (IL-1β) | Level of TNF-α (TNF-α) | Level of IL-6 (IL-6) | Protein level of COX-2 increased by LPS treatment [2]
7 | 92 µM | C=C1[C@@H]2CC[C@H]3[C@]4(C)C[C@H](O[C@@H]5O[C@H](CO)[C@@H](O)[C@H](O)[C@H]5O)CC(C)(C)[C@H]4CC[C@]3(C2)[C@H]1O [Compound 2, creticoside A] | – | – | 95.7 ± 4% | – | – | – | –
8 | 148 µM | C=C1[C@@H]2CC[C@H]3[C@]4(C)C[C@H](O[C@@H]5O[C@H](CO)[C@@H](O)[C@H](O)[C@H]5O)C[C@](C)(CO)[C@H]4CC[C@]3(C2)[C@H]1O [Compound 4, pterokaurane M1 2-O-β-D-glucopyranoside] | – | – | 90.5 ± 10.2% | – | – | – | –
9 | 148 µM | C=C1[C@@H]2CC[C@H]3[C@]4(C)C[C@H](O[C@@H]5O[C@H](CO)[C@@H](O)[C@H](O)[C@H]5O)C[C@@](C)(CO)[C@H]4CC[C@]3(C2)[C@H]1O [Compound 5, 2β,15α,19-trihydroxy-ent-kaur-16-ene 2-O-β-D-gluco-pyranoside] | – | – | 73.6 ± 2.9% | – | – | – | –
10 | 101 µM | C=C1[C@@H]2CC[C@H]3[C@]4(C)C[C@H](O[C@@H]5O[C@H](CO)[C@@H](O)[C@H](O)[C@H]5O)CC(C)(C)[C@H]4CC[C@]3([C@@H]2O)[C@H]1O [Compound 8, pterokaurane P1 2-O-β-D-glucopyranoside] | – | – | 91.7 ± 3.7% | – | – | – | –
11 | 182 µM | CC1(C)C[C@@H](O[C@@H]2O[C@H](CO)[C@@H](O)[C@H](O)[C@H]2O)C[C@]2(C)[C@@H]1CC[C@@]13C[C@@H](CC[C@H]12)[C@](C)(O[C@@H]1O[C@H](CO)[C@@H](O)[C@H](O)[C@H]1O)C3 [Compound 10, 2β,16α-dihydroxy-ent-kaurane 2,16-di-O-β-D-glucopyranoside] | – | – | 88.2 ± 8% | – | – | – | –
12 | 114 µM | CC1(C)C[C@@H](O[C@@H]2O[C@H](CO)[C@@H](O)[C@H](O)[C@H]2O)C[C@]2(C)[C@@H]1CC[C@@]13C[C@@H](CC[C@H]12)[C@@](O)(CO)C3 [Compound 12, 2β,16α,17-trihydroxy-ent-kaurane 2-O-β-D-glucopyranoside] | – | – | 93.6 ± 8.3% | – | – | – | –
13 | 53.5 µM | COC(=O)[C@@H](N)CCCNC(N)=N[N+](=O)[O-] [L-NAME, Nω-nitro-L-arginine methyl ester, reference compound] | – | – | 100 ± 5% | – | – | – | –
